For the test, the system named is HEK-293 Gal4-VP16 UAS luciferase reporter, luminescence. The experiment in a line: VP16 transactivation inhibitor potency, dose response, counter-screen for SRC1 inhibitor project, cell-based, luminescence, high throughput, SRC1 series (AID 602236). On the technique in general: The purpose of a counterscreen is to sort out artefacts and off-target activity.

Activity calls are given as the source filed them.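 The calls were made as follows: active = IC50 of 10 µM or lower; inactive = IC50 above 10 µM.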 Bounds are passed on as bounds.

In general, IC50 refers to the point on the concentration scale where inhibition reaches its midpoint.

Turning to `Cc1cc(C)nc(SCc2ccc(C(=O)N/N=C/c3cccc(O)c3O)cc2)n1`, the concentration for half-maximal inhibition (IC50) is 5.29 µM.

On to `Nc1ccn(C2OC(CO)C(O)C2O)c(=O)n1` (stereo not drawn), for which the IC50 was 21.7 µM (inactive).

In the case of `c1nc2sc3c(c2c2nnnn12)CCCC3`, the IC50 is 13.3 µM (inactive).

Take `O=C(Nc1ccncc1)c1ccccc1[N+](=O)[O-]`: the IC50 is 14.2 µM (inactive).

`Cn1nc(C(F)(F)F)c(C#N)c1N1CCN(c2ccccc2)CC1`: the half-maximal inhibitory concentration (IC50) was 6.34 µM.

With `COc1cc2c3c([nH]c2cc1F)C(=O)NCC3`, the IC50 is 24.8 µM (inactive).

Turning to `Nc1ccc(Oc2ccccc2-c2ccccc2)cc1`, the IC50 was 19 µM (inactive).

`O=C(CCCc1nc(-c2ccccc2Cl)no1)NC1CCCC1`: the IC50 was 13.6 µM (inactive).

Regarding `CCn1c(Oc2ccc(F)cc2)nc2c1c(=O)n(C)c(=O)n2C`, the IC50 is 12.4 µM (inactive).

In the case of `O=C(NC(NC(=S)N1CCOCC1)C(Cl)(Cl)Cl)c1ccc(Cl)cc1` (stereo not drawn), the IC50 is 15.5 µM (inactive).

Turning to `Cc1cc(=O)[nH]c(Nc2cccc(Br)c2)n1`, the half-inhibitory concentration (IC50) is 9.71 µM.

For the molecule `O=C(O)c1ccccc1-c1c2cc(I)c(=O)c(I)c-2oc2c(I)c(O)c(I)cc12`, the IC50 is > 35.9 µM (inactive).

`CC(=O)c1cc2c(C)cc(=O)oc2cc1O`: the IC50 is 29 µM (inactive).

For the molecule `Cc1cccn2c(=O)c3cc(C(=O)NCCN4CCOCC4)c(=N)n(Cc4cccnc4)c3nc12`, the IC50 was 13.5 µM (inactive).

For `COc1cc(/C=C2\CC(C(C)(C)C)C/C(=C\c3cc(OC)c(OC)c(OC)c3)C2=O)cc(OC)c1OC` (stereo not drawn), the half-inhibitory concentration (IC50) was 5.96 µM.

In the case of `COc1ccc(Oc2nc3c(c(=O)n(C)c(=O)n3C)n2C)cc1`, the IC50 is 16.6 µM (inactive).

For the molecule `O=C(N/N=C/c1cc([N+](=O)[O-])ccc1O)c1cccc(N2CCCC2=O)c1`, the IC50 is 18.3 µM (inactive).

Turning to `O=C(Nc1cccc(Cl)c1)Nc1nnc(-c2ccncc2)s1`, the IC50 is 5.14 µM.

Turning to `COc1ccc(C(O)(C(C)C)C(CN2CCOCC2)c2ccc(Cl)cc2)cc1` (stereo not drawn), the IC50 is 20 µM (inactive).

For the molecule `COc1ccc(Cc2nnc(SCc3ccc([N+](=O)[O-])cc3)o2)cc1`, the IC50 is 15.3 µM (inactive).

Turning to `CCCCCCCC[n+]1c(C)n(-c2ccccc2)c2ccc(NC(C)=O)cc21`, the IC50 was 10.5 µM (inactive).

On to `Cc1ccc(OCC(=O)c2cc(C)n(Cc3cccs3)c2C)c([N+](=O)[O-])n1`, for which the IC50 was 12.1 µM (inactive).

As to `Nc1ccn([C@@H]2O[C@H](CO)[C@@H](O)C2O)c(=O)n1` (stereo partly drawn), the IC50 was 16.2 µM (inactive).

For the molecule `Cc1nc2c(-c3ccc(Cl)cc3)c(C)[nH]n2c(=O)c1Cc1ccccc1`, the IC50 is 6.96 µM.

As to `O=C(Nc1nc(-c2ccccn2)cs1)c1cccc(-n2cnnn2)c1`, the IC50 was 17 µM (inactive).

For `O=C1CCC2S/C(=C/Nc3ccc(C(F)(F)F)cc3)C(=O)N12` (stereo not drawn), the IC50 is > 35.9 µM (inactive).

Consider `NC(=S)NN=Cc1ccc(OC(=O)COc2cc(Cl)c(Cl)cc2Cl)cn1`, for which the IC50 was > 35.9 µM (inactive).

As for `CC(=O)C1=C(C)NC2=C(C(=O)CC(C)(C)C2)C1C` (stereo not drawn), the IC50 was 13.1 µM (inactive).

As to `Cc1cccc(C)c1-n1nnnc1C(c1cccs1)N1CCC2(CC1)C(=O)NCN2c1ccccc1` (stereo not drawn), the IC50 was 14.4 µM (inactive).

As for `CCOc1cccc(/C=N/NC(=O)c2cccnc2)c1O`, the IC50 was 8.44 µM.

With `Cc1c(CC(=O)NCCCC(=O)O)c(=O)oc2cc3c(cc12)CCC(C)(C)O3`, the IC50 was 18.4 µM (inactive).

On to `C=CCOc1ccc(/C=C2\SC(=S)N(CCC(=O)O)C2=O)cc1`, for which the IC50 was > 35.9 µM (inactive).

Take `Cc1nn(C(C)(C)C)c(C)c1/C=N/OC(=O)Nc1ccc(Cl)c(Cl)c1`: the IC50 was 13.9 µM (inactive).

Turning to `COc1ccc(/C=C2\CC/C(=C\c3ccc(OC)c(OC)c3)C2=O)cc1OC`, the IC50 was 5.39 µM.

With `O=C(CCC(=O)Nc1ccc(Br)cc1)N/N=C/c1ccccc1O`, the concentration for half-maximal inhibition (IC50) is 4.9 µM.

With `O=C(CCn1cnc(-c2ccccc2)c1-c1ccccc1)N/N=C/c1ccccc1O`, the IC50 is 19.9 µM (inactive).

As to `CCOc1ccccc1-n1c(SCC(=O)Nc2ccccc2C(=O)O)nc2ccccc2c1=O`, the IC50 was > 35.9 µM (inactive).

For the molecule `CC(C)(C)NC(=O)C1(C)CCC(=O)N1CCCn1ccnc1` (stereo not drawn), the IC50 is 12.5 µM (inactive).

As to `CN(C)c1ccc(Nc2ncnc3ccc(Br)cc23)cc1`, the IC50 was 3.2 µM.

In the case of `O=C1c2cccc(OCc3ccc(F)cc3)c2CCN1Cc1ccccc1`, the IC50 was 10.7 µM (inactive).

Consider `CCN(C(=O)c1cccc(S(=O)(=O)N(C)C)c1)C12CC3CC(CC(C3)C1)C2`, for which the IC50 is 15.7 µM (inactive).

Take `CN(Cc1cnc2nc(N)nc(N)c2n1)c1ccc(C(=O)N[C@@H](CCC(=O)O)C(=O)O)cc1`: the IC50 is > 35.9 µM (inactive).

Consider `Cc1ccc2occ(/C=N/NC(=O)[C@@H](N)Cc3ccccc3)c(=O)c2c1`, for which the IC50 was 12.7 µM (inactive).

Turning to `COc1ccc(OC)c(/C=C2\NC(=O)NC2=O)c1`, the IC50 is 10.8 µM (inactive).

As for `COc1ccc(Nc2ncnc3ccc(Br)cc23)c(OC)c1`, the IC50 is 15.9 µM (inactive).

In the case of `CN(c1ccc(C(=O)N2CCN(Cc3ccc4c(c3)OCO4)CC2)cc1)S(=O)(=O)c1ccccc1`, the IC50 is 13.5 µM (inactive).

On to `COc1cc(OC)c2cc(C(=O)N/N=C/c3cccc(OC)c3O)[nH]c2c1`, for which the IC50 was 9.42 µM.

Regarding `Cc1nc2c(-c3ccc(F)cc3)cnn2c(N)c1-c1ccccc1`, the IC50 was 14.5 µM (inactive).

Consider `COc1cc(C(=O)NC(=S)NNC(=O)c2cnccn2)cc(OC)c1OC`, for which the IC50 was 11.9 µM (inactive).

In the case of `COC(CN(C(=O)CCl)C(C(=O)NC1CCCCC1)c1ccccc1C)OC` (stereo not drawn), the half-inhibitory concentration (IC50) is 8.47 µM.

For `CC(C)n1c(SCC(=O)Nc2nc3c(s2)CCCC3)nc2c1c(=O)n(C)c(=O)n2C`, the IC50 was 13.9 µM (inactive).

For `CCCc1cc(C(=O)N(C)CC(=O)Nc2ccc(OCC)c(OCC)c2)sc1C`, the IC50 is > 35.9 µM (inactive).

On to `CCOc1ccc(-c2noc(CCC(=O)O)n2)cc1`, for which the IC50 is > 35.9 µM (inactive).

Take `N#Cc1cc2ccncc2c2ccccc12`: the concentration for half-maximal inhibition (IC50) was 6.89 µM.

On to `S=C(Nc1ccccc1)Nc1ccc(OCc2ccc(Cl)cc2Cl)cc1`, for which the IC50 was 6.69 µM.

On to `CC(C)Cn1c(N)c(C(=O)COC(=O)c2cc3ccccc3cc2O)c(=O)n(C)c1=O`, for which the IC50 was 29.3 µM (inactive).

`O=C(CSc1nc(-c2cccs2)cc(C(F)(F)F)n1)Nc1cc(OCC(F)(F)C(F)F)cc([N+](=O)[O-])c1`: the IC50 is 21.9 µM (inactive).

Take `Cc1nn(CC(=O)N2CCN(c3cccc(C(F)(F)F)c3)CC2)c(=O)c2cccn12`: the IC50 was 17.6 µM (inactive).

For the molecule `CCCCC(CC)COCCCN=Cc1c(O)[nH]c(=S)[nH]c1=O` (stereo not drawn), the IC50 was 10.5 µM (inactive).

Take `CN(C)c1ccc(/C=C/c2nc3ccccc3s2)cc1`: the IC50 was 19.8 µM (inactive).

Take `C=C1C(=O)[C@@]23C[C@H]4[C@@H]5[C@@]6(C)CCC[C@@]57[C@@H]2[C@@H](O)[C@@H]1C[C@H]3[C@H]7N4C6`: the IC50 is 8.05 µM.

Take `O=C(CCl)N1N=C(c2ccco2)CC1c1ccco1` (stereo not drawn): the IC50 is > 12 µM (inactive).

Regarding `C=CCn1c(O)c(C(C)=NCc2cc(OC)cc(OC)c2)c(=O)[nH]c1=O`, the IC50 was 7.94 µM.

Regarding `CN(C)C(=O)c1cccc(COc2ccc(N3C(N)=NC(N)=NC3(C)C)cc2Cl)c1`, the IC50 was > 35.8 µM (inactive).

Take `COC(=O)c1sc2cnccc2c1N`: the IC50 is > 35.9 µM (inactive).

In the case of `COc1ccc(-c2ncncc2-c2ccccc2)c(O)c1`, the IC50 was 19.4 µM (inactive).

On to `Cc1ccccc1C(=O)/C(C#N)=N/Nc1c(C)n(C)n(-c2ccccc2)c1=O`, for which the IC50 was 5.6 µM.

Consider `CN(Cc1cnc2nc(N)nc(N)c2n1)c1ccc(C(=O)NC(CCC(=O)O)C(=O)O)cc1` (stereo not drawn), for which the IC50 is > 35.9 µM (inactive).

With `COc1ccc2[nH]c(=O)c(CN(CCN3CCCC3)C(=O)Nc3ccccc3Cl)cc2c1`, the IC50 is 23.8 µM (inactive).

As to `O=C(CCl)NC(Cc1ccccc1)c1ccccc1` (stereo not drawn), the IC50 is 20.8 µM (inactive).

Regarding `Cc1ccc(NC(=O)C2CCN(c3ncnc4sc(C)c(C)c34)CC2)cc1S(=O)(=O)N(C)C`, the IC50 is 13.4 µM (inactive).

For `CN(C)C(=O)c1ccc(-c2n[nH]c(=O)c3ccccc23)cc1`, the IC50 is 16.2 µM (inactive).

For the molecule `Cc1sc2ncnc(N3CCC(C(=O)Nc4cc(S(C)(=O)=O)ccc4Cl)CC3)c2c1C`, the IC50 is 20.7 µM (inactive).

Consider `Cc1ccc(NC(=O)CCC(=O)N/N=C/c2ccc(O)cc2O)cc1`, for which the IC50 is 23 µM (inactive).

As for `CCN(C(=O)c1cc(S(=O)(=O)N2CCCCC2)c[nH]1)c1ccc(OC)cc1`, the IC50 was 12.8 µM (inactive).

In the case of `CCCS(=O)(=O)c1c(S(=O)(=O)CCC)c2c(C)cccn2c1C(=O)N/N=C/c1cc(O)cc(O)c1`, the 50% inhibitory concentration (IC50) was 5 µM.

Regarding `COc1cc(C2c3cc4c(cc3C(OC3OC5COC(c6cccs6)OC5C(O)C3O)C3COC(=O)C23)OCO4)cc(OC)c1O` (stereo not drawn), the IC50 is > 35.9 µM (inactive).

`Cc1ccc(C)c(NC(=O)c2ccccc2NS(=O)(=O)c2cc([N+](=O)[O-])ccc2C)c1`: the half-inhibitory concentration (IC50) is 3.98 µM.

As to `COc1ccc(-c2cnc(N)nc2-c2ccc(OC)cc2O)cc1`, the IC50 was 11.7 µM (inactive).

Consider `Cc1ccc(NC(=O)NC2CC(=O)N(c3ccc4c(c3)OCCO4)C2)cc1C` (stereo not drawn), for which the IC50 is 20.6 µM (inactive).

As to `CC(=O)N1CCN(c2ccc(Oc3ncnc4sccc34)cc2)CC1`, the half-inhibitory concentration (IC50) was 9.64 µM.

For the molecule `O=C(CCl)N1N=C(c2cccs2)CC1c1ccco1` (stereo not drawn), the IC50 is 20.2 µM (inactive).

As to `CC(=O)NC(c1cc(Cl)c2cccnc2c1O)C1CC1` (stereo not drawn), the IC50 was 9.3 µM.

In the case of `CCc1ccc(-c2nc(CSCC(=O)NCc3ccco3)c(C)o2)cc1`, the IC50 was 21.8 µM (inactive).

Take `CN(CC(=O)Nc1ccc(Cl)c(C(F)(F)F)c1)C(=O)C1CC(=O)N(c2ccc3c(c2)OCCO3)C1` (stereo not drawn): the IC50 is 25.1 µM (inactive).

On to `O=[N+]([O-])c1cccc2c1ccc1ncccc12`, for which the IC50 was 12.8 µM (inactive).

Consider `COc1ccc(/C=C2/SC(=S)N(CCC(=O)O)C2=O)cc1`, for which the IC50 was > 35.9 µM (inactive).

With `O=C(Nc1cccc2c1CCCC2)c1cc([N+](=O)[O-])ccc1Cl`, the half-maximal inhibitory concentration (IC50) was 9.3 µM.

These data come from PubChem BioAssay AID602236 (The Scripps Research Institute Molecular Screening Center, 2012).
